Counter-ions that a name gives are not always drawn.
Key:
[1] = target: CYP3A4(C377/C468) mutant (Homo sapiens, UniProt P08684, S18F, form not given); test: Ligand-induced spin shift, absorbance titration; type: binding; settings: C377/C468
Description: (§1) All absorbance and fluorescence assays (including the time-resolved fluorescence measurements) were performed at a protein concentration ≤1 µM at 25°C with continuous stirring. Absorbance spectra were recorded with an S2000 rapid scanning CCD spectrometer (Ocean Optics). Ligand binding assays were done in 100 mM Na-Hepes buffer, pH 7.4, containing 0.5 mM EDTA.
(§2) Absorbance spectra obtained in titration experiments were analyzed with a principal component analysis (PCA) procedure complemented with least-square approximation of the principal vectors with a combination of the prototypical spectra of the CYP3A4 low-spin, high-spin and Type II-substrate-bound ferric CYP3A4 P450 states as described, [31].
(§3) When fitting the results of titration experiments, where the changes in the monitored signal A S (fraction of the enzyme in the high-spin state, intensity or the lifetime of the donor phosphorescence at a given substrate concentration) were assumed to be proportional to [ES], this equation was complemented with the offset A 0 and the scaling factor A max to yield the following relationship: [drawing 5] (Eq.5)

[2] = target: CYP3A4(C64/C468) mutant (Homo sapiens, UniProt P08684, S18F, form not given); test: Ligand-induced spin shift, absorbance titration; type: binding; settings: C64/C468
Description: as §1, §2, §3

[3] = target: CYP3A4 (C377/C468 mutant) (Homo sapiens, UniProt P08684, form not given/S18F); test: Ligand-induced spin shift, absorbance titration; type: binding; settings: human, purified CYP3A4(C377/C468) mutant protein, pH 7.4; read-out: K D or S 50
Description: as §1, §2, §3

[4] = target: CYP3A4 (C64/C468 mutant) (Homo sapiens, UniProt P08684, form not given/S18F); test: Ligand-induced spin shift, absorbance titration; type: binding; settings: human, purified CYP3A4(C64/C468) mutant protein, pH 7.4; read-out: K D or S 50
Description: as §1, §2, §3

[5] = target: double-labeled CYP3A4 C64/C468-ER/DY (Homo sapiens, UniProt P08684, S18F, form not given); test: Ligand-induced spin shift, absorbance titration; type: binding; settings: (C64/C468)-ER/DY
Description: as §1, §2, §3

[6] = target: CYP3A4 (double-labeled C64/C468-ER/DY) (Homo sapiens, UniProt P08684, form not given/S18F); test: Ligand-induced spin shift, absorbance titration; type: binding; settings: human, purified double-labeled CYP3A4 C64/C468-ER/DY protein, pH 7.4; read-out: K D or S 50
Description: as §1, §2, §3

[7] = target: double-labeled CYP3A4 C64/C121-DY/ER (Homo sapiens, UniProt P08684, A121C/C239S/C377S/C468A/C98S/S18F); test: Steady-state LRET titration (delayed emission); settings: Table S2, protein C64/C121-ER/DY; for R (interprobe distance with ligand), steady-state measurements / ΔR, steady-state measurements: same ligand concentrations
Description: as §1
Fluorescence-based ligand binding assays were done under anaerobic conditions. Anaerobiosis was achieved using an oxygen-scavenging system consisting of protecatechuate-3,4-dioxygenase (0.5 units/ml) and 5 mM protocatechuic acid. The steady state and time-resolved phosphorescence measurements were performed with the use of a Cary Eclipse fluorescence spectrophotometer (Varian/Agilent Technologies). The excitation wavelength was set to 540 nm. Spectra were taken from 650 to 860 nm with 100 µs delay.
Quantitative interpretation of LRET results was also based on the use of PCA applied to a series of emission spectra normalized on integral intensity. […] Intensity of the donor and acceptor fluorescence obtained in this way were used in determination of the efficiency of steady-state LRET using the equation [drawing 1] (Eq.1) where I ad is emission intensity of the acceptor, I da is the residual donor emission in the presence of acceptor (I da), Φ a and Φ d are the quantum yield of the fluorescence of acceptor and the quantum yield of the phosphorescence of donor, respectively.
Distances were calculated using the equation: [drawing 3] (Eq.3) where R 0 is the Förster distance, and R is the distance between the donor and acceptor. R 0 was calculated with the use of PhotoChemCad software. In these calculations, we used the values of the orientation factor (κ^2) and the refractive index (n) of 0.667 and 1.4, respectively.
as §3

[8] = target: wild type CYP3A4 (N-terminally truncated Δ3-12, S18F) (Homo sapiens, UniProt P08684, S18F); test: Ligand-induced spin shift, absorbance titration
Description: as §1, §2, §3

[9] = target: CYP3A4(C64/C121) mutant (Homo sapiens, UniProt P08684, A121C/C239S/C377S/C468A/C98S/S18F); test: Ligand-induced spin shift, absorbance titration
Description: as §1, §2, §3

[10] = target: CYP3A4 (double-labeled (C64/C468)-ER/DY) (Homo sapiens, UniProt P08684, form not given/S18F); test: Steady-state LRET titration (delayed emission); type: binding; settings: human, purified double-labeled CYP3A4 (C64/C468)-ER/DY protein, pH 7.4; (C64/C468)-ER/DY; LRET titration; read-out: K d, steady-state fluorescence
Summary of the method: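 Protein at ≤1 µM, 25°C, stirred, in 100 mM Na-Hepes pH 7.4 with 0.5 mM EDTA, kept anaerobic with a protocatechuate-3,4-dioxygenase/protocatechuic acid scavenger. Delayed emission (100 µs delay) recorded from 650 to 860 nm at 540 nm excitation, with PCA-resolved donor/acceptor intensities giving LRET efficiency and distances (κ² 0.667, n 1.4). Titration signals fitted to a binding equation with offset and scaling terms.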

[11] = target: double-labeled CYP3A4 C64/C468-DY/ER (Homo sapiens, UniProt P08684, S18F, form not given); test: Ligand-induced spin shift, absorbance titration; type: binding; settings: (C64/C468)-DY/ER
Description: as §1, §2, §3

[12] = target: CYP3A4 (double-labeled C64/C468-DY/ER) (Homo sapiens, UniProt P08684, form not given/S18F); test: Ligand-induced spin shift, absorbance titration; type: binding; settings: human, purified double-labeled CYP3A4 C64/C468-DY/ER protein, pH 7.4; read-out: K D or S 50
Description: as §1, §2, §3

[13] = target: CYP3A4 (double-labeled C377/C468-DY/ER) (Homo sapiens, UniProt P08684, form not given/S18F); test: Ligand-induced spin shift, absorbance titration; type: binding; settings: purified double-labeled CYP3A4 C377/C468-DY/ER protein, pH 7.4, read-out: K D or S 50
Description: as §1, §2, §3

CYP3A4(C64/C121) mutant, sequence (P08684 with tags, fused parts or gaps S18F/C98S/A121C/C239S/C377S/C468A limits assumed): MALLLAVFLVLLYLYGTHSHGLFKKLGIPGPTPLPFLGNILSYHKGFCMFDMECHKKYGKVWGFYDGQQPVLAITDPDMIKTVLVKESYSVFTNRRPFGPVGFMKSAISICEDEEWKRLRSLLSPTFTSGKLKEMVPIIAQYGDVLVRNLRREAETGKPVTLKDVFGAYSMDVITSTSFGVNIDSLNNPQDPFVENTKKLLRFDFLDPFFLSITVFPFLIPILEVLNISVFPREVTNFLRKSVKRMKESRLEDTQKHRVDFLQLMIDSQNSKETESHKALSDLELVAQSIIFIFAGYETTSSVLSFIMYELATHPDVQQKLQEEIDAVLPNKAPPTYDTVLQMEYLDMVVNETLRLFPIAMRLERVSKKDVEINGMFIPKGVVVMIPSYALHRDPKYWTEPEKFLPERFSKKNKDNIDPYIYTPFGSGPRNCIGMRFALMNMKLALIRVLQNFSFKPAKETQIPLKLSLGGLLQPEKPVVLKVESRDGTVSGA
double-labeled CYP3A4 C64/C121-DY/ER, sequence (P08684 with tags, fused parts or gaps S18F/C98S/A121C/C239S/C377S/C468A limits assumed): as above
CYP3A4(C64/C468) mutant, sequence (P08684 13-503 S18F, form open): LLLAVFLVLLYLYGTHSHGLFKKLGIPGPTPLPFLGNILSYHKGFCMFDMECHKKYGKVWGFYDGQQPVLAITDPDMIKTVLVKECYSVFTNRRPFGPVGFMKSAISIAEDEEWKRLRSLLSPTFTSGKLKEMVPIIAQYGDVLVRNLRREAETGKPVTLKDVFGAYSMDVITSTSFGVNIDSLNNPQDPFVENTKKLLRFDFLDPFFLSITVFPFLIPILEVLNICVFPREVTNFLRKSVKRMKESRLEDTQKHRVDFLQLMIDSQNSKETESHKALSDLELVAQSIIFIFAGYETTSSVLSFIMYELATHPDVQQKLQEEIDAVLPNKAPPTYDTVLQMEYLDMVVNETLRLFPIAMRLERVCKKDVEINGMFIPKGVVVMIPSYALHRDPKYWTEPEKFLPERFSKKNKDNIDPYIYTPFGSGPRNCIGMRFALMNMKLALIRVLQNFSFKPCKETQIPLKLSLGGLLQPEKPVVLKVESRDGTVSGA
CYP3A4 (C377/C468 mutant), sequence (P08684 13-503 S18F, form open): as above
CYP3A4 (C64/C468 mutant), sequence (P08684 13-503 S18F, form open): as above
CYP3A4(C377/C468) mutant, sequence (P08684 13-503 S18F, form open): as above
wild type CYP3A4 (N-terminally truncated Δ3-12, S18F), sequence (P08684 with tags, fused parts or gaps S18F): as the sequence (P08684 with tags, fused parts or gaps S18F/C98S/A121C/C239S/C377S/C468A limits assumed) above, with S88C, C111A, S229C, S367C, A458C counted along it
double-labeled CYP3A4 C64/C468-ER/DY, sequence (P08684 13-503 S18F, form open): as the sequence (P08684 13-503 S18F, form open) above
CYP3A4 (double-labeled C64/C468-ER/DY), sequence (P08684 13-503 S18F, form open): as above
double-labeled CYP3A4 C64/C468-DY/ER, sequence (P08684 13-503 S18F, form open): as above
CYP3A4 (double-labeled C64/C468-DY/ER), sequence (P08684 13-503 S18F, form open): as above
CYP3A4 (double-labeled C377/C468-DY/ER), sequence (P08684 13-503 S18F, form open): as above
CYP3A4 (double-labeled (C64/C468)-ER/DY), sequence (P08684 13-503 S18F, form open): as above

Structure (SMILES): OCCCCc1ccc2ccc3cccc4ccc1c2c34 [1-PB, 1-pyrenebutanol]
- Nh (Hill coefficient) [1]: 1.2±0.2
- ΔF HS (amplitude of ligand-induced spin shift) [1]: 29±9%
- Nh (Hill coefficient) [2]: 1.2±0.1
- ΔF HS (amplitude of ligand-induced spin shift) [2]: 43±5%
- Kd [3]: 14 ± 2 µM
- Kd [4]: 5.7 ± 1.7 µM
- Nh (Hill coefficient) [5]: 1.3±0.1
- ΔF HS (amplitude of ligand-induced spin shift) [5]: 18±2%
- Kd [6]: 5.4 ± 2.1 µM
- E (LRET efficiency with ligand), steady-state measurements ([7]; 1-PB 40 µM, ANF 100 µM, BCT 2.5 µM, cholesterol 100 µM, testosterone 100 µM): 18 ± 1%
- R (interprobe distance with ligand), steady-state measurements [7]: 43.4 ± 0.7 Å
- ΔR, steady-state measurements [7]: 0.8 ± 0.7 Å
- Kd [8]: 9.5 ± 0.9 µM
- Nh (Hill coefficient) ([8]; W/T): 1.6±0.4
- ΔF HS (amplitude of ligand-induced spin shift) ([8]; W/T): 50±1%
- Kd [9]: 16 ± 8 µM
- Nh (Hill coefficient) ([9]; C64/C121): 1.3±0.5
- ΔF HS (amplitude of ligand-induced spin shift) ([9]; C64/C121): 17±10%

Structure (SMILES): O=c1cc(-c2ccccc2)oc2c1ccc1ccccc12 [ANF, α-naphthoflavone]
- Kd [10]: 17.3 ± 7.2 µM
- Nh (Hill coefficient) [11]: 1.5±0.1
- ΔF HS (amplitude of ligand-induced spin shift) [11]: 13±1%
- Nh (Hill coefficient) [1]: 1.4±0.2
- ΔF HS (amplitude of ligand-induced spin shift) [1]: 24±12%
- Kd [12]: 4.2 ± 0.9 µM
- Nh (Hill coefficient) [2]: 1.8±0.2
- ΔF HS (amplitude of ligand-induced spin shift) [2]: 39±8%
- Kd [3]: 6.2 ± 1.2 µM
- Kd [4]: 5.1 ± 1.5 µM
- R (interprobe distance with ligand), steady-state measurements [7]: 43.4 ± 0.1 Å
- ΔR, steady-state measurements [7]: 1.1 ± 0.1 Å
- Kd [8]: 7.4 ± 1.6 µM
- Nh (Hill coefficient) ([8]; human, pH 7.4): 1.9±0.3
- ΔF HS (amplitude of ligand-induced spin shift) ([8]; human, pH 7.4): 41±1%
- Kd [9]: 8.6 ± 1.6 µM
- Nh (Hill coefficient) ([9]; human, pH 7.4): 1.3±0.4
- ΔF HS (amplitude of ligand-induced spin shift) ([9]; human, pH 7.4): 19±4%

Structure (SMILES): CC(C)C[C@H]1C(=O)N2CCC[C@H]2[C@]2(O)O[C@](NC(=O)[C@@H]3C=C4c5cccc6[nH]c(Br)c(c56)C[C@H]4N(C)C3)(C(C)C)C(=O)N12 [Bromocriptine, Bromocriptine mesylate]
- Kd [13]: 0.93 ± 0.6 µM
- Kd [3]: 0.96 ± 0.2 µM
- Kd [4]: 0.34 ± 0.1 µM
- Kd [6]: 0.28 ± 0.1 µM
- R (interprobe distance with ligand), steady-state measurements [7]: 43.6 ± 0.9 Å
- ΔR, steady-state measurements [7]: 1.0 ± 0.9 Å

Source: article PMC3871636 (PLoS ONE, 2013)
